Measurements as given in ChEMBL document CHEMBL5052856, “Inhibitors of apol1 and methods of using same” (2021).

Columns and labels:
[1] = target: Apolipoprotein L1 (Homo sapiens, UniProt O14791); test: Inhibition of APOL1 G1 variant in human HEK293-T-REx cells measured by Thallium assay; format: cell-based
[2] = tested on: Trypanosoma brucei brucei; test: Antitrypanosomal activity against Trypanosoma brucei brucei assessed as trypanosome lysis using recombinant APOL1 protein G1 variant and measured by Alamar blue based fluoresence assay; format: functional, organism-based

Compound	IC50 [1]	IC50 [2]
O=C1CC[C@H](NC(=O)[C@H]2C[C@H](c3c(-c4ccc(F)cc4)[nH]c4c(F)cc(F)cc43)C2)C1	0.25 nM	250 nM
NC(=O)C1(NC(=O)[C@H]2C[C@H](c3c(-c4ccc(F)cc4)[nH]c4c(F)cc(F)cc43)C2)CC1	0.25 nM	250 nM
O=C(NC[C@@H](O)C(F)(F)F)[C@H]1C[C@H](c2c(-c3ccc(F)cc3)[nH]c3c(F)cc(F)cc32)C1	0.25 nM	250 nM
CC(CO)CNC(=O)[C@H]1C[C@H](c2c(-c3ccc(F)cc3)[nH]c3c(F)cc(F)cc32)C1 (some centres not stated)	0.25 nM	250 nM
CN1CCC(NC(=O)[C@H]2C[C@H](c3c(-c4ccc(F)cc4)[nH]c4c(F)cc(F)cc43)C2)C1=O (some centres not stated)	< 250 nM	250 nM
O=C(NC[C@H](O)C(F)(F)F)[C@H]1C[C@H](c2c(-c3ccc(F)cc3)[nH]c3c(F)cc(F)cc32)C1	0.25 nM	< 250 nM
